The nature of series [1]: Rancimat test, oxidative stability of lard. As to conditions: for Induction Time / Anti-oxidant Index: lard samples; for Anti-oxidant Index: lard negative control = 1.00. As to the method:
The potential anti-oxidative properties of the seven compounds was also tested. Experiments were performed using the Rancimat method, a common method for measurement of anti-oxidant activity of both synthetic and natural anti-oxidants. The method is based on measuring changes in electrical conductivity of water caused by the formation of short-chain compounds when fats and oils are oxidized under elevated temperature and accelerated aeration. Using lard samples, the effects of each of the seven compounds on the oxidative stability of lard was determined. The anti-oxidative activity levels of the compounds isolated from blueberry are shown below in Table 1. The levels of anti-oxidant activity can be compared with a known anti-oxidant compound BHT.

Series [2] deals with HL-60 cells. Kind of series: Cytotoxicity in human leukemia cells (HL-60), tritiated thymidine uptake. Format: cell-based. As to conditions: for IC50, inhibition of DNA synthesis (tritiated thymidine uptake): 90 minutes at 37 C. The procedure:
The structure and identification of the seven isolated compounds was then determined using NMR. […] Verification after NMR was made by comparing mass spectra with the literature and by comparing the spectra with authentic compounds using thin layer chromatography. […] Using a well-established screening assay for cytotoxicity, the compounds were tested in a human leukemia cell line (HL-60) for their ability to inhibit growth of these cells in culture. This assay is routinely used by those of skill to determine the potential anti-carcinogenic activity of chemicals where anti-carcinogenic activity is correlated with growth inhibitory activity in HL-60 cells. Uptake of tritiated thymidine into cells, a measure of the level of DNA synthesis and thus cell growth, was determined in the cells both with and without the presence of each of the seven blueberry extract compounds.
HL-60 cells were cultivated in 1.62% RPMI 1640 medium supplemented with 10% fetal calf serum and 1% penicillin-streptomycin. The concentration of the cells in the medium was kept between 2 and 10×10^5 counts/ml. Cell concentrations were counted at the beginning of each experiment with a microscope. Cells were washed without antibiotics and collected by centrifugation. The cells were then diluted to 3×10^5 counts/ml with cold medium without antibiotics. Tritiated thymidine was mixed into the cold medium at a concentration of 150 Ci/mmol. The samples to be tested were dissolved in DMSO at concentrations between 0.1 g/L and 50 ug/L. A 2 microliter sample of each concentration was added to 6 ml tubes, using triplicate tubes for reproducibility. A 1 ml sample of the HL-60 cell culture was added to each tube, […]. The tubes were incubated at 37 C for 90 minutes and then cooled over ice. Cold PBS was added to each tube and they were centrifuged at 1000 rpm for 5 minutes. The supernatant was discarded and distilled water mixed with the cells. Free and bound tritiated thymidine levels were measured by scintillation counting.

The test system of series [3] is human colon (HCT-8) tumor cells. The conditions noted are these: cited from earlier work.

The structures appear in SMILES notation.

Consider `C[C@@H]1CC[C@]2(C(=O)O)CC[C@]3(C)C(=CC[C@@H]4[C@@]5(C)CC[C@H](O)C(C)(C)[C@@H]5CC[C@]43C)[C@@H]2[C@]1(C)O` [3β,19α-Dihydroxy-urs-12-en-28-oic Acid, 3β,19α-dihydroxy-urs-12-en-28-oic acid], for which, in series [1], the “Induction Time” value turned out to be 2.2 h and the “Anti-oxidant Index” value is 1.05. Moreover, in series [2], the “inhibition of DNA synthesis / cell growth in HL-60 cells (in words)” value is reported as “effectively inhibit DNA synthesis” and the “IC50, inhibition of DNA synthesis (tritiated thymidine uptake)” value is on record as 1 ppm.
As for `O=Cc1ccc(CO)o1` [5-Hydroxymethyl-2-furfural, 5-hydroxymethyl-2-furfural], in series [1], the “Induction Time” value worked out at 2.1 h and the “Anti-oxidant Index” value came to 1.00.
Turning to `Cc1cc(C(C)(C)C)c(O)c(C(C)(C)C)c1` [BHT, reference compound], in series [1], the “Induction Time” value worked out at 5.8 h and the “Anti-oxidant Index” value was 2.76.
On to `O=C(O)c1cc(O)c(O)c(O)c1` [Gallic Acid, gallic acid], for which, in series [1], the “oxidation-inhibition activity (in words)” value is “high oxidation-inhibition activity”, the “Induction Time” value worked out at 28.1 h and the “Anti-oxidant Index” value was 13.38.
Consider `O=C(O)c1ccc(O)c(O)c1` [Protocatechuic Acid, protocatechuic acid], for which, in series [1], the “oxidation-inhibition activity (in words)” value is “high oxidation-inhibition activity”, the “Induction Time” value turned out to be 18.5 h and the “Anti-oxidant Index” value turned out to be 8.81.
As for `CC[C@H](CC[C@@H](C)[C@H]1CC[C@H]2[C@@H]3CC=C4C[C@@H](O[C@@H]5O[C@H](CO)[C@@H](O)[C@H](O)[C@H]5O)CC[C@]4(C)[C@H]3CC[C@]12C)C(C)C` [Sitosterol-β-D-glucoside, sitosterol-β-D-glucoside], in series [1], the “Induction Time” value is 2.4 h and the “Anti-oxidant Index” value was 1.14.
The corresponding values for `COc1cc(C(=O)O)cc(OC)c1O` [Syringic Acid, syringic acid] are 3.1 h and 1.48.
As for `C[C@H]1[C@H](C)CC[C@]2(C(=O)O)CC[C@]3(C)C(=CC[C@@H]4[C@@]5(C)CC[C@H](O)C(C)(C)[C@@H]5CC[C@]43C)[C@H]12` [Urosolic Acid, urosolic acid], in series [1], the “Induction Time” value came to 2.2 h. Further, the “cytotoxicity (in words)” value in series [3] is “marginal cytotoxicity”. Also, in series [2], the “inhibition of DNA synthesis / cell growth in HL-60 cells (in words)” value is given as “effectively inhibit DNA synthesis” and the “IC50, inhibition of DNA synthesis (tritiated thymidine uptake)” value stood at 1.5 ppm.
